Laboratory results from patent US20110280930A1, “PRODUCTS AND METHODS FOR STIMULATING AN IMMUNE RESPONSE” (priority 2008, published 2011).

Tested on: DN32.D3 cells
Experiment: αGalCer presentation by B cells to iNKT cells (IL-2 production)
Format: cell-based, mouse
Details: MD4 B cells pulsed with particles or soluble αGalCer, then cocultured with DN32.D3 cells; IL-2 by ELISA
Method: Splenic B cells were enriched by negative selection to >99% purity using B cell purification kit (Miltenyi Biotec). For analysis of αGalCer presentation, B cells were incubated overnight with particles containing αGalCer and/or HEL, extensively washed and cultured at 5×10^4 cells per well with the same number of DN32.D3 cells. NKT activation was assayed by measuring IL-2 production in the culture supernatant. For blocking experiments MD4 B cells were incubated with an antiCDld blocking antibody (25 μg/ml; clone 1B1) for 2 h before incubation with iNKT cells.
Concentration of IL-2 in the supernatant of the cultures was determined by ELISA using the JES6-1A12 capture antibody (BD Pharmingen). Biotinylated JSE6-5H4 (BD Pharmingen) was used for detection. Specific antibody in mice sera were measured using plates coated with antigen (HEL, OVA or CGG) and serial dilutions of sera. Bound antibodies were detected with biotin-labelled goat anti-mouse IgM, IgG, IgG1, IgG2b, IgG2c or IgG3 (BD Pharmingen).
We aspired to investigate the impact of targeting iNKT cell help to antigen specific B cells during the development of an immune response. […] Alexa-488-labeled-αGalCer was used to quantify the amount of αGalCer loaded on the beads, and we found this to be 150 ng per μl of beads (10^8 beads/μl). […]

SMILES: CCCCCCCCCCCCCCCCCCCCCCCCCC(=O)N[C@@H](CO[C@H]1O[C@H](CO)[C@H](O)[C@H](O)[C@H]1O)[C@H](O)[C@H](O)CCCCCCCCCCCCCC [soluble αGalCer, α-galactosylceramide]
- iNKT cell activation (IL-2 production): efficiently presented by B cells and induced IL-2 production
